Measured values published in patent US6927236B2, “Coniosulfides and their derivatives, processes for preparing them, and their use as pharmaceuticals” (Aventis Pharma Deutschland GmbH., priority 2001, dated 2005).

Key:
[1] = Solubility (appearance / physicochemical properties); details: for Solubility in organic solvents: medium-polar and polar organic solvents
[2] = Stability in solution (appearance / physicochemical properties)
[3] = target: T1, amyloid precursor protein - FE65 interaction (Homo sapiens, UniProt O00213); assay: Test for the ability to inhibit the APP-FE65 interaction (energy transfer, Eu-cryptate/XL665); type: binding; details: for IC50: biotin-cAPP / GST-PTB2, emission at 665 nm and 615 nm, read-out: Inhibition of the amyloid precursor protein - FE65 interaction, IC50
T1 construct: 1 μL of GST-PTB2 (20 nM in Buffer A) was added
T1 sequence (O00213 542-699 limits assumed): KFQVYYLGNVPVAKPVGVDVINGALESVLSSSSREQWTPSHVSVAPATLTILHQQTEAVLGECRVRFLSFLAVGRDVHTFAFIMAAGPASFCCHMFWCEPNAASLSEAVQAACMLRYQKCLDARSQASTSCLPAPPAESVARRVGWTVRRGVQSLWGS
Procedure: Test for the Ability to Inhibit the APP-FE65 Interaction
1 μl of the solution to be tested was pipetted, together with 30 μM 32 mer cAPP in Buffer A, into a microtiter plate. 1 μl of biotin-cAPP (10 nM, dissolved in Buffer A) was then added. After incubating for 15 minutes, 1 μL of GST-PTB2 (20 nM in Buffer A) was added and the plate was incubated once again for 15 minutes. 4 μl of antibody mixture (Streptavidin labeled with Eu-cryptate, […] per well; monoclonal anti-GST antibody labeled with XL665, […] in Buffer B) were then added. After 30 minutes at room temperature, the emission signal of the energy transfer, and the europium signal, were measured at 665 nm and 615 nm in a Tecan ultraphotometer after the test solution had been activated with light at a wavelength of 340 nm.
The IC50 values listed in Table 1 were found for the inhibition of the amyloid precursor protein—FE65 interaction.

| SMILES | Solubility in organic solvents [1] | Solubility in water [1] | Stability in neutral and mildly acidic medium [2] | Stability in strongly acid and strongly alkaline solutions [2] | IC50 [3] [µM] | Inhibition of the APP-FE65 interaction (in words) [3] |
| --- | --- | --- | --- | --- | --- | --- |
| CC(=O)NCC(=O)N/C(=C\SC/C=C(\C)CC/C=C(\C)CCC=C(C)C)C(=O)O [Coniosulfide A] | soluble | not particularly soluble | Stable | unstable | 2.3 | – |
| CC(=O)NCC(=O)NCC(=O)N/C(=C\SC/C=C(\C)CC/C=C(\C)CCC=C(C)C)C(=O)O [Coniosulfide C] | soluble | not particularly soluble | Stable | unstable | 3.8 | – |
| C/C=C/C=C/C1C(C)=CC2CC(C)CCC2C1(C)/C(O)=C1\C(=O)NC(C(C)O)C1=O (centres unmarked) [Coniosetin, coniosetin] | soluble | not particularly soluble | Stable | unstable | 28 | inhibits the APP-FE65 reaction |
| CC(=O)NCC(=O)N/C(=C\SC/C=C(\C)CC/C=C(\C)CCC(C)=C(C)C)C(=O)O [Coniosulfide B] | soluble | not particularly soluble | Stable | unstable | 2.6 | – |
| CC(=O)NCC(=O)NCC(=O)N/C(=C\SC/C=C(\C)CC/C=C(\C)CCC(C)=C(C)C)C(=O)O [Coniosulfide D] | soluble | not particularly soluble | Stable | unstable | 3.8 | – |
